Test results published in EP0551200A1, “Protein phosphatase inhibitors for use in therapy” (priority 1992, dated 1993).

Test system: Egr-1 mRNA
Assay: Northern blot analysis of Egr-1 mRNA induction in quiescent primary human fibroblasts
Assay type: cell-based
Protocol: Quiescent human fibroblasts were incubated with TNF (500 units/ml) (a) or OA (500 nM) (b) for 0, 30, 60 min after which total cellular RNA was extracted. Blots of RNA from these cells were hybridized to radiolabeled (10⁶ cpm/ml) Egr-1 cDNA probe. c, the blot in b was stripped and reprobed with c-jun cDNA. Note: Egr-1 mRNA probe was not completely stripped from the blot. The autoradiograph of the blot is presented. d, regularly maintained cells were incubated wither with no additions (control, 0 time) or with OA for 1, 3, 5, 7 h and Northern analysis was carried out with an IL-6 cDNA probe (ATCC, Rockville, MD, US).
10 µg of RNA was applied to each lane and subjected to Northern blot analysis using an Egr-1 specific cDNA probe [1.6 kb Bgl II fragment (Sukhatme et al, Cell 53, 37-48, 1988)]. The same blots were rehybridized with actin or GADPH cDNA for normalizing the amount of RNA loaded. The blots were dried and autoradiographed. • (A). Time course of okadaic acid-induced Egr-1 and c-jun messages in primary human fibroblasts. Quiescent human fibroblasts were induced with 1 µM of okadaic acid for the time periods indicated. […] Time course of okadaic acid-induced Egr-1 message in Balb/c 3T3 cells. Quiescent Balb/c 3T3 cells were induced with okadaic acid (0.5µM) for the times indicated. • (C). Concentration dependent induction of Egr-1 message by okadaic acid in Balb/c 3T3 cells. Quiescent Balb/c 3T3 cells were induced with the indicated concentrations of okadaic acid for 1 h. As controls, different concentrations of DMSO were included. These corresponded to the amounts present in 0.25 µM okadaic acid (0.025% dimethyl sulphoxide (DMSO)) 0.5 µM okadaic acid (0.05% DMSO) and 1 µM okadaic acid (0.1%). • (D). Concentration dependent and time course induction of Egr-1 message by calyculin A. Quiescent Balb/c 3T3 cells were induced with different concentrations of calyculin A for 1 h. Northern analysis of this dose-dependent induction by calyculin A is shown on the left panel of the figure. […] Northern analysis of this time course induction by calyculin A is shown in the right panel of the figure. The same blot was rehybridized with pCMV-fos (Curran et al, Oncogene 2, 79-84, 1987) and pCMV-jun (Rauscher et al, 1988) shown in the middle panel. The blot was dried and autoradiographed.
Cells were incubated with either 0.5 µM of okadaic acid or 10 µg/ml of cycloheximide as well as with 0.5 µM of okadaic acid and 10 µg/ml of cycloheximide for 1.5, 3 or 6 h. Cells were harvested, RNA isolated and subjected to Northern blot analysis. The blot was probed with Egr-1 or actin cDNA.
Quiescent primary human fibroblasts were incubated with okadaic acid (OA) or TPA for 1 or 3 h. The concentrations of OA and TPA were 0.5 µM and 120 ng/ml, respectively. The concentration of 1-(5-isoquinolinylsulfonyl)-2-methylpiperazine dihydrochloride (H7) and N-(2-guanidinoethyl)-5-isoquinolinesulphonamide dihydrochloride (HA1004) used was 25 µM. The cells were pre-treated for 15 min with H7 or HA1004 before they were induced by OA or TPA for 1 or 3 h. Cells were harvested, RNA was isolated and subjected to Northern blot analysis. The blot was probed with Egr-1 or GADPH cDNA. • (B). As a positive control, primary human fibroblasts were treated with TPA (30 ng/ml) for 1 h (1st lane). The fibroblasts were also pre-treated with H7 (25 µM) or HA1004 (25 µM) for 15 min before treatment with TPA for 1 h (2nd and 3rd lanes respectively). […] The blot was probed with Egr-1 or actin cDNA. • (C). Quiescent Balb/c 3T3 cells were incubated with OA, TPA or dBt-cAMP for 1 h or pre-treated with H7 (25 µM) or HA1004 (25 µM) for 15 min and then incubated with each of the agonists for 1 h. Cells were harvested, RNA was isolated and subjected to Northern blot analysis. […]

Q: Which “time for which the Egr-1 mRNA level is maintained” value (1 µM) does the source give for `C=C1[C@@H](O)[C@@H]2O[C@]3(CC[C@H](/C=C/[C@@H](C)[C@@H]4CC(C)=C[C@@]5(O[C@H](C[C@@](C)(O)C(=O)O)CC[C@H]5O)O4)O3)CC[C@H]2O[C@@H]1[C@@H](O)C[C@H](C)[C@H]1O[C@@]2(CCCCO2)CC[C@H]1C` [okadaic acid] here?
A: up to 7 h

Q: What about the “time of maximal induction of Egr-1 mRNA” value (1 µM) of the same molecule?
A: about 2 h

Q: And the “time to induction of Egr-1 mRNA” value (1 µM, Example 2)?
A: ≤ 1 h

Q: What about the fold induction at 1 µM (Homo sapiens, Fibroblast, read-out: Egr-1 mRNA level over control) of the same molecule?
A: 30 to 40

Q: And the “time to induction of Egr-1” value (OA 500 nM, Example 1)?
A: ≤ 30 min
